Reference: US8729013B2 (priority 2004, dated 2014)
Values after ≈ are worked out from the molar mass of the structure shown. Non-standard residues stand in square brackets, D forms with d. Residues, ends and D or L forms follow the SMILES beside them. Orn(N5-OH,N5-Ac) = CC(=O)N(O)CCC[C@H](N)C(=O)O

Experiments:
Assay type in all cases: cell-based, Staphylococcus aureus
S. aureus Newman = assay: Minimum inhibitory concentration (MIC) in TMS
Description: (§1) Streptonigrin is toxic to cells in the presence of intracellular iron and, therefore, cells importing iron are generally more sensitive to the toxic affects of this drug versus mutants debilitated in iron import (Yeowell et al. (1982) Antimicrob. Agents Chemother. 22:961-968). The minimum inhibitory concentration (MIC) of streptonigrin was approximately 4-fold lower for S. aureus Newman grown in TMS than for either S. aureus H803 or H804 grown in the same media (see Table 2).

[1] = test system: S. aureus H803 (Newman sirA::Km); assay: Minimum inhibitory concentration (MIC) in TMS; conditions: H803, bacteria grown in TMS
Description: as §1

[2] = test system: S. aureus H804 (Newman sirB::Tet); assay: Minimum inhibitory concentration (MIC) in TMS; conditions: H804, bacteria grown in TMS
Description: as §1

[3] = test system: H1071 (RN6390 ΔfhuCBG::ermB); assay: Siderophore plate bioassay (iron source utilization); conditions: TMS agar, 25 μM EDDHA; compared with wildtype
Method: Siderophore plate bioassays were performed essentially as described (Sebulsky et al. (2000) J. Bacteriol. 182:4394-4400). Briefly, 10^4 cells/mL were added to molten TMS agar containing 25 μM EDDHA as an iron chelating agent. Ten microliters of iron sources to be tested (DESFERAL® (50 μM), ferrichrome (50 μM), enterobactin (500 μM), staphylobactin (50 μM DESFERAL® equivalents), hemin (250 μg/mL), hemoglobin (2 mg/mL), FeCl3 (50 mM), or ferric citrate (5 mM)) were added to sterile 6 mm-diameter paper disks and placed on the surface of the plates. Growth promotion, as measured by the diameter of the growth halo around each disk, was determined after 48 h incubation, except for heme and hemoglobin, which were measured after 72 hours.

sirA and sirB mutants = assay: Siderophore plate bioassay (growth promotion); conditions: data not shown
Method: Siderophore plate bioassays were performed essentially as previously described (Sebulsky et al. (2000) J. Bacteriol. 182:4394-4400) with the following modifications: TMS-agar was cooled to 45° C. before the addition of 10^5 cfu/ml of each strain to be tested. 2,2′-dipyridyl was added at a concentration of 550 μM for plates containing S. aureus Newman and Newman containing vehicle controls (e.g. pAW8 and pALC2073) or 400 μM 2,2′-dipyridyl for strains H803 (Newman sirA::Km) and H804 (Newman sirB::Tet) (see FIG. 1) with or without plasmids. Staphylobactin siderophore was isolated from RN6390 as previously described (Dale et al. (2004) Infect. Immun. 72:29-37). Briefly, S. aureus strains were vigorously shaken in TMS for 48 hours at 37° C. Culture supernatants were recovered by centrifugation in 100% methanol to 1/10 of the volume of the original culture supernatant and passed through Whatman No. 1 filter paper to remove particulate material. Rotary evaporation was used to reduce the volume before application to an LH-20 column (Amersham Biosciences). Fractions were collected, and those testing positive with chrome azurol S (CAS) shuttle solution and for biological activity in siderophore plate bioassays were dried, resuspended in water, and examined by high-performance liquid chromatography (HPLC). Analytical reversed-phase HPLC was used for final purification of siderophore. The column utilized was a Waters ODS2 SPherisorb column (4.6 by 150 mm). Trifluoroacetic acid (0.1%) in water represented solvent A whereas 0.1% trifluoroacetic acid in acetonitrile was used as solvent B. The chromatographic method used was as follows: at a flow rate of 0.75 ml/min, 6% B for 3.5 min., followed by a gradient of 6 to 60% B over 20 min. […] Staphylobactin was collected, dried, and rechromatographed to check for purity. The purity of Staphylobactin siderophore was confirmed by HPLC analysis. Aerobactin was purchased from EMC microcollections and used at a concentration of 1 μg/ml as a control in all bioassays.

[4] = Staphylococcus aureus, NEWMAN, read-out: MIC Streptonigrin

Compound | utilization as iron source by H1071 [3] | growth promotion in mutants (sirA and sirB mutants) | further results
COC1=C(N)C(=O)c2nc(-c3nc(C(=O)O)c(C)c(-c4ccc(OC)c(OC)c4O)c3N)ccc2C1=O [Streptonigrin, streptonigrin] | – | – | MIC Streptonigrin (S. aureus Newman; Newman, bacteria grown in TMS): 2 ng/mL (≈ 0.00395 µM); MIC (S. aureus Newman; Staphylococcus aureus, Newman + 50 μM DESFERAL, TMS, read-out: MIC Streptonigrin): 2 ng/mL; MIC lower for Newman than for H803 or H804 (S. aureus Newman; grown in TMS): approximately 4 fold; MIC [1, 4]: 8 ng/mL (≈ 0.0158 µM); MIC [2, 4]: 8 ng/mL (≈ 0.0158 µM)
hemoglobin | not significantly impaired | – | –
hemin | not significantly impaired | – | –
CC(=O)N[C@@H](CCCN([O-])C(=O)/C=C(\C)CCO)C(=O)OCC/C(C)=C/C(=O)N([O-])CCC[C@@H]1NC(=O)[C@H](CCCN([O-])C(=O)/C=C(\C)CCO)NC1=O.[Fe+3] [coprogen] | unable to utilize | – | –
CC(=O)N(O)CCCC[C@H](NC(=O)CC(O)(CC(=O)N[C@@H](CCCCN(O)C(C)=O)C(=O)O)C(=O)O)C(=O)O [aerobactin] | unable to utilize | unaffected | –
CC(=O)N(O)CCCCCNC(=O)CCC(=O)N(O)CCCCCNC(=O)CCC(=O)N(O)CCCCCN [DESFERAL®, desferrioxamine B] | unable to utilize | unaffected | –
c1ccc(-c2ccccn2)nc1 [2,2′-dipyridyl] | – | – | MIC higher for Newman than for H803 or H804 (S. aureus Newman): 4 fold; MIC 2,2′-dipyridyl (S. aureus Newman; Newman, bacteria grown in TMS): 500 µM (≈ 78.1 µg/mL); MIC 2,2′-dipyridyl [1]: 125 µM (≈ 19.5 µg/mL); MIC 2,2′-dipyridyl [2]: 125 µM (≈ 19.5 µg/mL)
CC(=O)N([O-])CCC[C@@H]1NC(=O)CNC(=O)CNC(=O)CNC(=O)[C@H](CCCN([O-])C(C)=O)NC(=O)[C@H](CCCN([O-])C(C)=O)NC1=O.[Fe+3] [ferrichrome] (cyclo(GGG[Orn(N5-OH,N5-Ac)][Orn(N5-OH,N5-Ac)][Orn(N5-OH,N5-Ac)])) | unable to utilize | – | –
ferric citrate | not significantly impaired | unaffected | –
O=C(N[C@H]1COC(=O)[C@@H](NC(=O)c2cccc(O)c2O)COC(=O)[C@@H](NC(=O)c2cccc(O)c2O)COC1=O)c1cccc(O)c1O [enterobactin] | not significantly impaired | – | –
